Assay results published in patent US20260035356A1, “MODULATORS OF TYK2 PROTEOLYSIS AND ASSOCIATED METHODS OF USE” (Arvinas Operations, Inc., priority 2022, published 2026).
“Also recorded” adds a separate entry of the source.

molecular target: T1, TYK2 (Homo sapiens, UniProt P29597); assay: TYK2 degradation in MOLT-4 cells (Western blot, TYK2 level relative to DMSO-treated cells); assay type: cell-based; details: 24 hour treatment, PROTAC 1 plus pomalidomide (competing for CRBN binding)
T1 construct: MOLT-4 cells (ATCC CRL-1582) were acquired from ATCC and maintained in RPMI-1640 medium; host or cells: MOLT-4 cells
T1 sequence (P29597 whole entry): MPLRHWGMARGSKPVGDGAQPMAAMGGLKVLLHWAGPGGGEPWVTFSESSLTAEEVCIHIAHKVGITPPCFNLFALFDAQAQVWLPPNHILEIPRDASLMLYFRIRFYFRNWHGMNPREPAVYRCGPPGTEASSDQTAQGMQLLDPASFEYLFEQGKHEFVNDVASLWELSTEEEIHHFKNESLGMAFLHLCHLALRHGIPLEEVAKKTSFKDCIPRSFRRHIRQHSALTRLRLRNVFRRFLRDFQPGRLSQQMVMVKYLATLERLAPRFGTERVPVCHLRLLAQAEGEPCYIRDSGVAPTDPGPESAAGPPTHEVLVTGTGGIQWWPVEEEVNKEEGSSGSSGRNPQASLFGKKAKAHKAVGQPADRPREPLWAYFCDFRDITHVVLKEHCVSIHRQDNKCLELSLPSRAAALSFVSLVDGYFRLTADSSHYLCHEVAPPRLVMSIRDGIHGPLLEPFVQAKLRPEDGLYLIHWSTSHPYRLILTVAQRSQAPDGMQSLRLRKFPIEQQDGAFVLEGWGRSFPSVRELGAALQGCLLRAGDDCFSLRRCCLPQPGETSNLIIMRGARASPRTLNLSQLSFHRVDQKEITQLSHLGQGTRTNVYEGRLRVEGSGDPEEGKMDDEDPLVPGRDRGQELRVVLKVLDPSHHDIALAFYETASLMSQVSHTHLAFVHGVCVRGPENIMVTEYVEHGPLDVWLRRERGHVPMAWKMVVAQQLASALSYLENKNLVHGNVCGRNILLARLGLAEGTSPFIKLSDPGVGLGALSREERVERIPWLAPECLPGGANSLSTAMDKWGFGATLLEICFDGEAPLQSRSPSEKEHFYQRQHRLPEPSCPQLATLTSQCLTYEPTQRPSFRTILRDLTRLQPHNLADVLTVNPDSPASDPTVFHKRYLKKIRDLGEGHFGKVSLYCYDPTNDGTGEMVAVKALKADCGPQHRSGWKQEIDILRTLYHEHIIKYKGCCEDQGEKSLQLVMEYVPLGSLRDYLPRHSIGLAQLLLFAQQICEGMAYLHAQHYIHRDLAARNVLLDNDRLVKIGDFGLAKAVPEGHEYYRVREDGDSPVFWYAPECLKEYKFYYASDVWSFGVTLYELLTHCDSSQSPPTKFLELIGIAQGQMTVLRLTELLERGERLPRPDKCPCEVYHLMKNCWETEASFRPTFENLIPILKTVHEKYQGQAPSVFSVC
Description: With reference to FIGS. 2A-2B. MOLT-4 cells (ATCC CRL-1582) were acquired from ATCC and maintained in RPMI-1640 medium supplemented with 10% fetal bovine serum (ATCC 30-2020), the combination henceforth referred to as “media”. Cells were maintained according to ATCC, (see product sheet), including incubation at 37° C. with 5% C02 in air other than during brief manipulations in a cell culture hood or during centrifugation.
18-24 hours before compound treatment, cells growing for 2-3 days in a flask were centrifuged at 200×g for 8 min, the media was aspirated, and fresh media was used to resuspend the cells. Cells were then counted, diluted with fresh media, and seeded at 650,000-750,000 cells/ml in 6-well plates, with 2 ml of volume per well.
Compounds to be tested were solubilized and stored in dimethyl sulfoxide (DMSO) at 10 mM. Compounds were first diluted in DMSO and then media so that the DMSO concentration was identical across treatments and the final concentration of DMSO was below 0.1% (typically 0.04%). Cells in each well of a 6-well plate were treated by adding 0.5 ml of fresh media containing varying concentrations of compounds to be tested—or only DMSO as a “no treatment” control.
Cells were harvested 24 hours after treatment by collecting all volume from each well into labeled microfuge tubes followed by centrifugation at 200×g for 8 min. Cells were washed in 1 ml of phosphate buffered saline (DPBS; Gibco 141190144) and then 0.5 ml of DPBS by centrifugation (as above) and aspiration. Cell pellets were resuspended by pipetting up-and-down in 100 microliters of ice cold RIPA buffer (Thermo, 89900) supplemented with 1× protease inhibitor cocktail and 1×EDTA (Pierce, 87786) and 1× phosphatase inhibitor cocktail (Pierce, 78420). Cell extracts were incubated on ice for 10 min and then centrifuged at 21,130×g for 20 min in a microfuge. Supernatants were collected and protein concentration for each sample was determined using a BCA kit (Thermo, 23225). Each sample was then denatured by adding 4×LDS buffer (Invitrogen, NP0008) to 1× followed by heating at 95° C. for 5 minutes.
Proteins were separated by electrophoresis using a XCell4 Surelock Midi-Cell apparatus (Invitrogen) and then transferred to PVDF membranes within iBlot 2 Transfer Stacks (Invitrogen, IB24001) using an iBlot 2 system (Invitrogen). Membranes were cut horizontally at a 50 kDa molecular weight marker and each piece of membrane was blocked in TBS-T+5% non-fat dry milk (NFDM) for 1-24 hours. Membranes were then incubated with antibody to TYK2 (Cell Signaling Technologies, 14193) or GAPDH (Cell Signaling Technologies, 5174; as loading control) in TBS-T+1% NFDM for 1 hour. Membranes were washed four times in TBS-T for 10 min each time, and then incubated with a HRP-conjugated secondary antibody (Cell Signaling Technologies, 7074) in TBS-T+1% NFDM for one hour. Membranes were washed four times for 10 min in TBS-T. Membranes were then incubated with reagents according to the SuperSignal West Femto Kit (Thermo, 34095) for 1 min at room temperature. Membranes were then imaged using a Gel Doc XR+ system (BioRad).
Captured images were processed using Image Lab software (BioRad). Using the volume tool, band intensities within rectangles of equal area were determined with the local subtraction method. The effects of compounds on TYK2 levels were related to the level of TYK2 from cells treated with only DMSO (no compound).

| Compound | amount of TYK2 protein, normalized to GADPH, under competition with pomalidomide (FIG. 2B) |
| --- | --- |
| CNC(=O)c1nnc(NC(=O)CCN2CCC(C3CN(c4ccc5c(c4)C(=O)N(C4CCC(=O)NC4=O)C5=O)C3)CC2)cc1Nc1cccc(-c2ncn(C)n2)c1OC (stereo not shown) [PROTAC 1, 6-(3-(4-(1-(2-(2,6-Dioxopiperidin-3-yl)-1,3-dioxoisoindolin-5-yl)azetidin-3-yl)piperidin-1-yl)propanamido)-4-((2-methoxy-3-(1-methyl-1H-1,2,4-triazol-3-yl)phenyl)amino)-N-methylpyridazine-3-carboxamide] | reversal of the PROTAC effect; also recorded: significantly reduces extent of degradation |

same assay, conditions: 24 hour treatment, compound alone; PROTAC 1 at 100 nM

| Compound | amount of TYK2 protein, normalized to the amount of GADPH protein, detected in cell lysates (FIG. 2B) |
| --- | --- |
| CNC(=O)c1nnc(NC(=O)CCN2CCC(C3CN(c4ccc5c(c4)C(=O)N(C4CCC(=O)NC4=O)C5=O)C3)CC2)cc1Nc1cccc(-c2ncn(C)n2)c1OC (stereo not shown) [PROTAC 1, 6-(3-(4-(1-(2-(2,6-Dioxopiperidin-3-yl)-1,3-dioxoisoindolin-5-yl)azetidin-3-yl)piperidin-1-yl)propanamido)-4-((2-methoxy-3-(1-methyl-1H-1,2,4-triazol-3-yl)phenyl)amino)-N-methylpyridazine-3-carboxamide] | effective at 100 nM in reducing the amount of TYK2 protein; also recorded: shows degradation |
| Nc1cccc2c1C(=O)N(C1CCC(=O)NC1=O)C2=O (stereo not shown) [pomalidomide, reference compound] | does not significantly reduce the amount of TYK2 protein |

same assay, conditions: MOLT-4 cells, 24 hours after treatment, TYK2 level related to DMSO-only cells

| Compound | Tyk2 Degradation Score |
| --- | --- |
| CNC(=O)c1nnc(NC(=O)CCN2CCC(C3CN(c4ccc5c(c4)C(=O)N(C4CCC(=O)NC4=O)C5=O)C3)CC2)cc1Nc1cccc(-c2ncn(C)n2)c1OC (stereo not shown) [PROTAC 1, 6-(3-(4-(1-(2-(2,6-Dioxopiperidin-3-yl)-1,3-dioxoisoindolin-5-yl)azetidin-3-yl)piperidin-1-yl)propanamido)-4-((2-methoxy-3-(1-methyl-1H-1,2,4-triazol-3-yl)phenyl)amino)-N-methylpyridazine-3-carboxamide] | + (25-50% degradation) |
| CNC(=O)c1nnc(NC(=O)CCN2CCN(c3ccc4c(c3)C(=O)N(C3CCC(=O)NC3=O)C4=O)CC2)cc1Nc1cccc(-c2ncn(C)n2)c1OC (stereo not shown) [PROTAC 2, 6-(3-(4-(2-(2,6-Dioxopiperidin-3-yl)-1,3-dioxoisoindolin-5-yl)piperazin-1-yl)propanamido)-4-((2-methoxy-3-(1-methyl-1H-1,2,4-triazol-3-yl)phenyl)amino)-N-methylpyridazine-3-carboxamide] | — (< 25% degradation) |
| CNC(=O)c1nnc(NC(=O)CCN2CCC(CC3CN(c4ccc5c(c4)C(=O)N(C4CCC(=O)NC4=O)C5=O)C3)CC2)cc1Nc1cccc(-c2ncn(C)n2)c1OC (stereo not shown) [PROTAC 3, 6-(3-(4-((1-(2-(2,6-Dioxopiperidin-3-yl)-1,3-dioxoisoindolin-5-yl)azetidin-3-yl)methyl)piperidin-1-yl)propanamido)-4-((2-methoxy-3-(1-methyl-1H-1,2,4-triazol-3-yl)phenyl)amino)-N-methylpyridazine-3-carboxamide] | ++ (51-75% degradation) |
| CNC(=O)c1nnc(NC(=O)CCN2CCN(c3cc(N4CCN(c5ccc6c(c5)C(=O)N(C5CCC(=O)NC5=O)C6=O)CC4)ncn3)CC2)cc1Nc1cccc(-c2ncn(C)n2)c1OC (stereo not shown) [PROTAC 4, 6-(3-(4-(6-(4-(2-(2,6-Dioxopiperidin-3-yl)-1,3-dioxoisoindolin-5-yl)piperazin-1-yl)pyrimidin-4-yl)piperazin-1-yl)propanamido)-4-((2-methoxy-3-(1-methyl-1H-1,2,4-triazol-3-yl)phenyl)amino)-N-methylpyridazine-3-carboxamide] | + (25-50% degradation) |
| CNC(=O)c1nnc(NC(=O)CCN2CCC(COCC3CCN(c4ccc5c(c4)C(=O)N(C4CCC(=O)NC4=O)C5=O)CC3)CC2)cc1Nc1cccc(-c2ncn(C)n2)c1OC (stereo not shown) [PROTAC 5, 6-(3-(4-(((1-(2-(2,6-Dioxopiperidin-3-yl)-1,3-dioxoisoindolin-5-yl)piperidin-4-yl)methoxy)methyl)piperidin-1-yl)propanamido)-4-((2-methoxy-3-(1-methyl-1H-1,2,4-triazol-3-yl)phenyl)amino)-N-methylpyridazine-3-carboxamide] | + (25-50% degradation) |
| CNC(=O)c1nnc(NC(=O)CCNCC2CCN(c3ccc4c(c3)C(=O)N(C3CCC(=O)NC3=O)C4=O)CC2)cc1Nc1cccc(-c2ncn(C)n2)c1OC (stereo not shown) [PROTAC 6, 6-(3-(((1-(2-(2,6-Dioxopiperidin-3-yl)-1,3-dioxoisoindolin-5-yl)piperidin-4-yl)methyl)amino)propanamido)-4-((2-methoxy-3-(1-methyl-1H-1,2,4-triazol-3-yl)phenyl)amino)-N-methylpyridazine-3-carboxamide] | ++ (51-75% degradation) |
| CNC(=O)c1nnc(NC(=O)CCN2CC(CN3CCN(C4CCN(c5ccc6c(c5)C(=O)N(C5CCC(=O)NC5=O)C6=O)CC4)CC3)C2)cc1Nc1cccc(-c2ncn(C)n2)c1OC (stereo not shown) [PROTAC 7, 6-(3-(3-((4-(1-(2-(2,6-Dioxopiperidin-3-yl)-1,3-dioxoisoindolin-5-yl)piperidin-4-yl)piperazin-1-yl)methyl)azetidin-1-yl)propanamido)-4-((2-methoxy-3-(1-methyl-1H-1,2,4-triazol-3-yl)phenyl)amino)-N-methylpyridazine-3-carboxamide] | +++ (>75% degradation) |
| CNC(=O)c1nnc(NC(=O)CCN2CCC(CCCN3CCN(c4ccc5c(c4)C(=O)N(C4CCC(=O)NC4=O)C5=O)CC3)CC2)cc1Nc1cccc(-c2ncn(C)n2)c1OC (stereo not shown) [PROTAC 8, 6-(3-(4-(3-(4-(2-(2,6-Dioxopiperidin-3-yl)-1,3-dioxoisoindolin-5-yl)piperazin-1-yl)propyl)piperidin-1-yl)propanamido)-4-((2-methoxy-3-(1-methyl-1H-1,2,4-triazol-3-yl)phenyl)amino)-N-methylpyridazine-3-carboxamide] | +++ (>75% degradation) |
| CNC(=O)c1nnc(NC(=O)CCN2CCC(CCC3CCN(c4ccc(Oc5ccc6c(c5)C(=O)N(C5CCC(=O)NC5=O)C6=O)cc4)CC3)CC2)cc1Nc1cccc(-c2ncn(C)n2)c1OC (stereo not shown) [PROTAC 9, 6-(3-(4-(2-(1-(4-((2-(2,6-Dioxopiperidin-3-yl)-1,3-dioxoisoindolin-5-yl)oxy)phenyl)piperidin-4-yl)ethyl)piperidin-1-yl)propanamido)-4-((2-methoxy-3-(1-methyl-1H-1,2,4-triazol-3-yl)phenyl)amino)-N-methylpyridazine-3-carboxamide] | ++ (51-75% degradation) |
| CNC(=O)c1nnc(NC(=O)CCN2CCC(CNc3ccc4c(c3)C(=O)N(C3CCC(=O)NC3=O)C4=O)CC2)cc1Nc1cccc(-c2ncn(C)n2)c1OC (stereo not shown) [PROTAC 10, 6-(3-(4-(((2-(2,6-Dioxopiperidin-3-yl)-1,3-dioxoisoindolin-5-yl)amino)methyl)piperidin-1-yl)propanamido)-4-((2-methoxy-3-(1-methyl-1H-1,2,4-triazol-3-yl)phenyl)amino)-N-methylpyridazine-3-carboxamide] | ++ (51-75% degradation) |
